Data on nine compounds can be found in ChEMBL document CHEMBL5126517, “Structure-Activity Relationship in the Leucettine Family of Kinase Inhibitors” (J Med Chem, 2022).

Series [1] concerns the target Glycogen synthase kinase-3 (Sus scrofa, UniProt B2LUN4+I6LNT8). Description: Inhibition of porcine brain GSK-3alpha/beta using YRRAAVPPSPSLSRHSSPHQpSEDEEE as substrate incubated for 30 mins in presence of ATP by scintillation counting method. It is filed as tissue-based.
Series [2] deals with Dual specificity protein kinase CLK4 (Mus musculus, UniProt O35493). Description: Inhibition of GST-fused mouse recombinant CLK4 expressed in Escherichia coli using GRSRSRSRSRSR peptide as substrate incubated for 30 mins in presence of ATP by scintillation counting method.
Chain of Dual specificity protein kinase CLK4 (O35493 whole entry, the tested form may be a part): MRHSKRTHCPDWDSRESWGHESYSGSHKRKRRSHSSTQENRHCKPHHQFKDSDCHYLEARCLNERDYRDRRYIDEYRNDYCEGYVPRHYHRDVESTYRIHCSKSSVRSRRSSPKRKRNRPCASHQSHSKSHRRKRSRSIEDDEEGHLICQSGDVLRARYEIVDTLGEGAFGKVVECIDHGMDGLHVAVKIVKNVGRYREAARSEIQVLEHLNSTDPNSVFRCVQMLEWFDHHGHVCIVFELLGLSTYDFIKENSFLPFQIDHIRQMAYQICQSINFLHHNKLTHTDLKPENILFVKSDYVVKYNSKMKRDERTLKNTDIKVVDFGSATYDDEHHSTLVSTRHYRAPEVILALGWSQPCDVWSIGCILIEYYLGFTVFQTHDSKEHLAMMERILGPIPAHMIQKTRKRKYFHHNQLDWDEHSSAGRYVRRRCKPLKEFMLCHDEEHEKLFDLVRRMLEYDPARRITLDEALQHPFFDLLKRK
Series [3] deals with Dual specificity protein kinase CLK3 (Mus musculus, UniProt O35492). Description: Inhibition of GST-fused mouse recombinant CLK3 expressed in Escherichia coli using GRSRSRSRSRSR peptide as substrate incubated for 30 mins in presence of ATP by scintillation counting method.
Chain of Dual specificity protein kinase CLK3 (O35492 whole entry, the tested form may be a part): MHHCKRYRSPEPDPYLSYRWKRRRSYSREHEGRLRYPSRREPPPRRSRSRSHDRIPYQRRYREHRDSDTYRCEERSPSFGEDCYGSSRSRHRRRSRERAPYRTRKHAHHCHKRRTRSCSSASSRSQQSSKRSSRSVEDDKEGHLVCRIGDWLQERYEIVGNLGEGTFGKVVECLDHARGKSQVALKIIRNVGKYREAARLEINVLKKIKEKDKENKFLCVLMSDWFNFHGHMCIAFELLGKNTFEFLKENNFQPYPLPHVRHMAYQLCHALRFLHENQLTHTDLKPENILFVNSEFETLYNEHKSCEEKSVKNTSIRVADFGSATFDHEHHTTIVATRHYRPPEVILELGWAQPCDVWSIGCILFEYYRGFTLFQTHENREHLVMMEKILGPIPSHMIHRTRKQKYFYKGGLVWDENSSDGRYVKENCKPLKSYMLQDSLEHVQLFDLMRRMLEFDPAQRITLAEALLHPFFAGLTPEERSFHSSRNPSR
Series [4] has as its target Dual specificity protein kinase CLK1 (Mus musculus, UniProt P22518). Description: Inhibition of GST-fused mouse recombinant CLK1 expressed in Escherichia coli using GRSRSRSRSRSR peptide as substrate incubated for 30 mins in presence of ATP by scintillation counting method.
Series [5] has as its target Dual specificity protein kinase CLK2 (Mus musculus, UniProt O35491). As to the kind of experiment: Inhibition of mouse recombinant GST-fused CLK2 expressed in Escherichia coli using GRSRSRSRSRSR peptide as substrate incubated for 30 mins in presence of ATP by scintillation counting method.
Series [6] deals with Dual specificity tyrosine-phosphorylation-regulated kinase 1A (Homo sapiens, UniProt Q13627). As to the kind of experiment: Inhibition of GST-fused human recombinant DYRK1A expressed in Escherichia coli using GRSRSRSRSRSR peptide as substrate incubated for 30 mins in presence of ATP by scintillation counting method.
The target in series [7] is Dual specificity tyrosine-phosphorylation-regulated kinase 1B (Homo sapiens, UniProt Q9Y463).
Chain of Dual specificity tyrosine-phosphorylation-regulated kinase 1B (Q9Y463 whole entry): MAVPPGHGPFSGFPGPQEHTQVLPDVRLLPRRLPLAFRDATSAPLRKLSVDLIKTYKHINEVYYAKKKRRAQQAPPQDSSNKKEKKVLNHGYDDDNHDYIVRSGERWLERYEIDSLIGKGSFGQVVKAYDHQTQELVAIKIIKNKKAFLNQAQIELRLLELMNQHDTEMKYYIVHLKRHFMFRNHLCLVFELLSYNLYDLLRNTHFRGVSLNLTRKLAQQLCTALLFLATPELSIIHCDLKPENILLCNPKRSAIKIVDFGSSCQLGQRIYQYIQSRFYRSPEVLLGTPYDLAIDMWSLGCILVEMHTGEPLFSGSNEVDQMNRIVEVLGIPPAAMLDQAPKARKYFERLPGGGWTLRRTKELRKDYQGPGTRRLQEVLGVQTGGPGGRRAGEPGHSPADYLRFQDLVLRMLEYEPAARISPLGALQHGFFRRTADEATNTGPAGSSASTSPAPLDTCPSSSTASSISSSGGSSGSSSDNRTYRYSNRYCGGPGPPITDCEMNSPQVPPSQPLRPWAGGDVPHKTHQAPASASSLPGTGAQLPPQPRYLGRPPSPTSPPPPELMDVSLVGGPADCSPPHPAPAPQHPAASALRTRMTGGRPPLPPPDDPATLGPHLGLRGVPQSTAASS
Series [8] concerns the target T1, Dual specificity tyrosine-phosphorylation-regulated kinase 2 (Homo sapiens, UniProt Q92630).
T1 sequence (Q92630 whole entry): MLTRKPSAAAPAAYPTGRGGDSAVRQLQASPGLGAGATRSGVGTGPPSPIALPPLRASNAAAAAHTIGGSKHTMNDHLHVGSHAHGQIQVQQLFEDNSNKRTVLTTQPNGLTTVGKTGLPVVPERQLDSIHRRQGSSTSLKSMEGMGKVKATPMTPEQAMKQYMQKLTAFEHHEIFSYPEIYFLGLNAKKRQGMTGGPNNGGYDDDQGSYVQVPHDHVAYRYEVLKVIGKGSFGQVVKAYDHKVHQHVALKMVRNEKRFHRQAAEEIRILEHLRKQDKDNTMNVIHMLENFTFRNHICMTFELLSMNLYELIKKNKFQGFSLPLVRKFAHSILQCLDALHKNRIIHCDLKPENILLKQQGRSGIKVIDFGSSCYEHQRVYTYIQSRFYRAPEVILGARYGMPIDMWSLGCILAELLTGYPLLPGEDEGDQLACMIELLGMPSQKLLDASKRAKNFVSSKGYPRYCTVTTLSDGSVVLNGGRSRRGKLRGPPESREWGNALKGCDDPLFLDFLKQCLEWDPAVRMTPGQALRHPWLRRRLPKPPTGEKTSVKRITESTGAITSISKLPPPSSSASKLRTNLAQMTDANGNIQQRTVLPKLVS
As to the kind of experiment: Inhibition of GST-fused human recombinant DYRK2 expressed in Escherichia coli using GRSRSRSRSRSR peptide as substrate incubated for 30 mins in presence of ATP by scintillation counting method.

In series [9] the target is T2, Dual specificity tyrosine-phosphorylation-regulated kinase 3 (Homo sapiens, UniProt O43781).
T2 sequence (O43781 whole entry): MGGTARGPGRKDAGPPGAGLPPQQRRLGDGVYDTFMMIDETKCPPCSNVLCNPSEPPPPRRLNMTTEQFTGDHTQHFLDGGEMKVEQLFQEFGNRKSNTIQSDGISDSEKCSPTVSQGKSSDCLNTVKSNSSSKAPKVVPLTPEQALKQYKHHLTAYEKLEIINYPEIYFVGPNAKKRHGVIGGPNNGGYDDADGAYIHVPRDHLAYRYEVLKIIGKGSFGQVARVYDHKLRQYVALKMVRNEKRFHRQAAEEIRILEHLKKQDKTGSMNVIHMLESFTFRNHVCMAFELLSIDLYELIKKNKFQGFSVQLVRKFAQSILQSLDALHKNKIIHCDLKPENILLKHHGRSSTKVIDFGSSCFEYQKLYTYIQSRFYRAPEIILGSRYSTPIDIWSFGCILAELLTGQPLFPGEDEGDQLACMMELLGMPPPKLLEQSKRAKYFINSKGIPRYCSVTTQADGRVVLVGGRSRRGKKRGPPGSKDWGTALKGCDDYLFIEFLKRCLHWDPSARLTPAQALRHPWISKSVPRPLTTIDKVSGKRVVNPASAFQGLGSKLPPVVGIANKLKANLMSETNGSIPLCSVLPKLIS
Description: Inhibition of GST-fused human recombinant DYRK3 expressed in Escherichia coli using GRSRSRSRSRSR peptide as substrate incubated for 30 mins in presence of ATP by scintillation counting method.

Series [10] addresses Serine/threonine-protein kinase pim-1 (Homo sapiens, UniProt P11309). As to the kind of experiment: Inhibition of human recombinant Pim1 expressed in Escherichia coli using histone H1 as substrate incubated for 30 mins in presence of ATP by scintillation counting method.
Series [11] has as its target Casein kinase 2 (Homo sapiens, UniProt P67870+P68400+P19784+Q8NEV1). As to the kind of experiment: Inhibition of human recombinant CK2 using RRRDDDSDDD peptide as substrate incubated for 30 mins in presence of ATP by scintillation counting method. It is filed as protein assay.
The test system of series [12] is U2OS. Description: Induction of PI3K/mTor-dependent autophagy in human U2OS cells assessed as number of LC3 foci per cell at 10 uM measured after 4 hrs. The format is cell-based. The conditions noted are these: filed as activator.
The test system of series [13] is HT-22. As to the kind of experiment: Modulation of CLK1 pre-mRNA splicing in mouse HT-22 cells assessed as inclusion of CLK1 exon 4 by measuring change in threshold cycle at 10 uM measured after 4 hrs by real time PCR analysis. The format is cell-based. To be noted: filed as modulator.
In series [14] the target is Cannabinoid receptor 1 (Homo sapiens, UniProt P21554). Description: Antagonist activity at CP-55940-activated CB1 receptor (unknown origin) at 10 uM by beta-arrestin assay relative to control. The format is functional. The arrangement: scale not given: the % may be the effect or the level left.
Chain of Cannabinoid receptor 1 (P21554 whole entry): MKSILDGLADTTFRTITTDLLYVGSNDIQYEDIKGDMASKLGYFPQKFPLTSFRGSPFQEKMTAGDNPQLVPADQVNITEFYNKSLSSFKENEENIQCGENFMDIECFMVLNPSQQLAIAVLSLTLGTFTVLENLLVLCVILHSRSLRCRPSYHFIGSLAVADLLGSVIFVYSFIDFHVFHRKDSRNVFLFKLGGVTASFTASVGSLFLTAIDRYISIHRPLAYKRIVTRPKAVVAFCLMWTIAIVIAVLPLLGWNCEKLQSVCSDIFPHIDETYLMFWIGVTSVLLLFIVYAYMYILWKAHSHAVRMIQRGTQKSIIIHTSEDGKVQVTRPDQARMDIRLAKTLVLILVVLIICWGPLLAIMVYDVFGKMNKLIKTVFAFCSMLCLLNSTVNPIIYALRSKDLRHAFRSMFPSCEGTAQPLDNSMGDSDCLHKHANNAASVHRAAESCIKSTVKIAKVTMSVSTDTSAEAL
Series [15] can be described thus: Neurotoxicity against mouse HT-22 cells assessed as cell survival at 20 uM treated for 24 hrs by MTS assay. It is filed as toxicity, cell-based. To be noted: ht-22, 24 h. For orientation: Tetrazolium dyes change colour on reduction, which living cells bring about.
Series [16] concerns HT-22. Description: Neuroprotective activity against glutamate-induced cell death in mouse HT-22 cells treated for 24 hrs by MTS assay. The format is functional, cell-based. The conditions noted are these: HT-22, 24 h.

Chain of Dual specificity protein kinase CLK1 (P22518 whole entry, the tested form may be a part): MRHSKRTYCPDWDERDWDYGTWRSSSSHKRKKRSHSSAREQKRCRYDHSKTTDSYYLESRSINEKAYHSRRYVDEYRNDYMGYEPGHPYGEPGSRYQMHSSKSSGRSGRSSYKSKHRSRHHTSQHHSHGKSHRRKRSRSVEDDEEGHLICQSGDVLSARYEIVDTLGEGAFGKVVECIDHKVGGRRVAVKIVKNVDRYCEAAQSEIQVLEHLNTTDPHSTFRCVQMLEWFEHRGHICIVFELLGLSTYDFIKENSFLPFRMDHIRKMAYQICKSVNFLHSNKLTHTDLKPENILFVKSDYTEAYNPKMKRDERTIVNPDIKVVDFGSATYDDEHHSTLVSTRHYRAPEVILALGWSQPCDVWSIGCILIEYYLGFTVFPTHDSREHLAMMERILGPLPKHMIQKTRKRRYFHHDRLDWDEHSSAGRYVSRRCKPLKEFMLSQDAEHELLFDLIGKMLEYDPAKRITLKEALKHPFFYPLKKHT
Chain of Dual specificity protein kinase CLK2 (O35491 whole entry, the tested form may be a part): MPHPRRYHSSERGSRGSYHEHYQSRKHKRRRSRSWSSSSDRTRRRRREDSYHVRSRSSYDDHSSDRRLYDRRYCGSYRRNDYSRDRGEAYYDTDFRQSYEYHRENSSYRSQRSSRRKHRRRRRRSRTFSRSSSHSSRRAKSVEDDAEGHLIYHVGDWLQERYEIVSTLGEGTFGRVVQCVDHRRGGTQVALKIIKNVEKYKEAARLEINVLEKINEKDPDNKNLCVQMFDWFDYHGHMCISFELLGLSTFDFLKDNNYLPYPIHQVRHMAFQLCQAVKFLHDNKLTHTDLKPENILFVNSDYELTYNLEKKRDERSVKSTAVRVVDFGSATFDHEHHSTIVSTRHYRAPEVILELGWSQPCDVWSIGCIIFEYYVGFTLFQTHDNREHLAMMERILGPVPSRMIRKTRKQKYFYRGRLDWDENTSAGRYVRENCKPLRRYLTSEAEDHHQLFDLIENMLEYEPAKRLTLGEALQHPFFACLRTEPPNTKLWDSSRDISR
Chain of Serine/threonine-protein kinase pim-1 (P11309 whole entry): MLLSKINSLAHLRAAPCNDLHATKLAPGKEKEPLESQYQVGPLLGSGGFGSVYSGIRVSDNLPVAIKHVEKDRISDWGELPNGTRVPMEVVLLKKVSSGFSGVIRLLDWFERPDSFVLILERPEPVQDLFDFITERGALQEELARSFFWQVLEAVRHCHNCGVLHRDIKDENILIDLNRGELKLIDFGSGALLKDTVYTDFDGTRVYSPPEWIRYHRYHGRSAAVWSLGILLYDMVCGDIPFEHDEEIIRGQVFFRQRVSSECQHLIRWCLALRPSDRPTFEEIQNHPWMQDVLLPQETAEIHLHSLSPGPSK

In the case of `O=C1NC(N2CCCC2)=N/C1=C\c1ccc2c(c1)OCO2`, the 50% inhibitory concentration (IC50) in [1] was determined as 6.2 µM; in [2] it was 0.38 µM; in series [3], 3.2 µM; in [4] it was 0.6 µM; in series [5], 2.3 µM; in [6] it was 0.63 µM. For the same compound, the concentration for half-maximal inhibition (IC50) is 2.3 µM in series [7]; 0.93 µM in [8]; 0.93 µM in series [9]; 1.5 µM in series [10]; 1.2 µM in series [11]. The values for the Activity in series [12], in series [14] and in series [15] were 5, -59.1% and “Non-Toxic”, respectively. Moreover, in series [13], the deltaCT came to 0.05.

For the compound `O=C1NC(N2CCOCC2)=N/C1=C\c1ccc2c(c1)OCO2`, the IC50 amounted to 6.5 µM in series [1]; 0.29 µM in series [2]; 5.6 µM in series [3]; 0.43 µM in series [4]; 1.5 µM in series [5]; 0.44 µM in series [6]. The IC50 was determined as 1.7 µM in series [7]; 0.41 µM in [8]; 1.9 µM in series [9]; 2.4 µM in [10]; 1.1 µM in [11]. Moreover, the results for the Activity in series [12], in series [14] and in series [15] were 6.5, -51% and “Non-Toxic”, respectively. Further, the deltaCT in [13] is 0.63.

As for `CSC1=N/C(=C\c2ccc3c(c2)OCO3)C(=O)N1`, the IC50 in [1] amounted to 1.8 µM; in series [2] it was 0.08 µM; in [3], 2.4 µM; in series [4], 0.073 µM; in series [5], 0.25 µM; in [6] it was 0.11 µM. In addition, the IC50 in [7] amounted to 0.33 µM; in [8], 0.08 µM; in [9] it was 0.41 µM; in series [10] it was 1.2 µM; in series [11] it was 2.2 µM. Moreover, the Activity is 5.9 in series [12], -23% in series [14] and “Non-Toxic” in series [15]. For the same compound, the deltaCT in series [13] was 0.13.

On to `CCSC1=N/C(=C\c2ccc3c(c2)OCO3)C(=O)N1C`, for which the 50% inhibitory concentration (IC50) was 1.1 µM in [1]; 0.11 µM in series [2]; 2.1 µM in [3]; 0.12 µM in series [4]; 0.42 µM in series [5]; 0.24 µM in series [6]. For the same compound, the IC50 was 0.98 µM in [7]; 0.34 µM in series [8]; 0.3 µM in [9]; 2.1 µM in [10]; more than 10 µM in [11]. Besides, the values for the Activity in series [12], in series [14] and in series [15] were 6.8, -0.7% and “Non-Toxic”, respectively. The deltaCT in series [13] is -0.99.

For the compound `CCCSC1=N/C(=C\c2ccc3c(c2)OCO3)C(=O)N1C`, the IC50 in series [1] was 2 µM; in series [2], 0.022 µM; in series [3], more than 10 µM; in [4], 0.064 µM; in series [5], 0.32 µM; in [6], 0.34 µM. For the same compound, the IC50 in series [7] was 0.62 µM; in series [8], 0.33 µM; in series [9], 0.62 µM; in [10], 2 µM; in [11] it was more than 10 µM. Moreover, the Activity in [12] was 6.2; in series [14], 37.2%; in series [15], “Non-Toxic”. Moreover, the deltaCT in series [13] was -1.36.

As to `O=C1NC(N2CCC(N3CCCCC3)CC2)=N/C1=C\c1ccc2c(c1)OCO2`, the IC50 in [1] was 6.2 µM; in series [2], 1.4 µM; in series [3], more than 10 µM; in [4] it was 0.92 µM; in [5], 3.2 µM; in [6] it was 1.1 µM. For the same compound, the IC50 is 4.4 µM in series [7]; 1.4 µM in series [8]; 5.2 µM in [9]; 7.6 µM in [10]; more than 10 µM in series [11]. Also, the Activity was 7.1 in [12], -51.1% in series [14] and “Non-Toxic” in [15]. For the same compound, the deltaCT in [13] came to 0.42.

On to `Cc1ccc(NC2=N/C(=C\c3ccc4c(c3)OCO4)C(=O)N2)cc1`, for which the half-inhibitory concentration (IC50) in series [1] is 7.3 µM; in series [2], 0.056 µM; in series [4] it was 0.053 µM; in [5], 1 µM; in [6], 0.018 µM; in [7], 0.053 µM. The IC50 is 0.034 µM in [8], 0.32 µM in [9], 3.5 µM in series [10] and 1.7 µM in [11]. Moreover, the EC50 in series [16] came out at 3.2 µM. The Activity is 8.4 in [12], 90.8% in [14] (filed as antagonist) and “Non-Toxic” in series [15]. For the same compound, in series [13], the deltaCT was 2.29.

As to `O=C1NC(N2CCCCC2)=N/C1=C\c1ccc2c(c1)OCO2`, the IC50 is 2.6 µM in series [1]; 0.25 µM in [2]; 4.5 µM in series [3]; 0.24 µM in series [4]; 1.3 µM in [5]; 0.13 µM in series [6]. In addition, the IC50 is 0.44 µM in series [7]; 0.22 µM in [8]; 0.53 µM in series [9]; 0.88 µM in [10]; 0.76 µM in series [11]. Moreover, the Activity was 6.8 in [12], -58.4% in [14] and “Non-Toxic” in [15]. For the same compound, the deltaCT in series [13] is 0.68.

On to `O=C1NC(NC2CCNCC2)=N/C1=C\c1ccc2c(c1)OCO2`, for which the half-maximal inhibitory concentration (IC50) in [1] worked out at 1.3 µM; in series [2] it was 0.26 µM; in [3], 5.3 µM; in [4] it was 0.22 µM; in [5] it was 0.9 µM; in series [6] it was 0.34 µM. Moreover, the IC50 in series [7] was 0.65 µM; in series [8], 0.25 µM; in [9] it was 0.91 µM; in series [10], 6.4 µM; in series [11], more than 10 µM. Further, the values for the Activity in series [12], in [14] and in series [15] were 7.4, -43.5% and “Non-Toxic”, respectively. The deltaCT in [13] stood at 0.36.

What is called IC50 is the concentration that inhibits the measured activity by half. One may read the EC50 as the concentration giving half of the maximal effect.
